Calls of active or inactive are those of the source. No cut-off for these calls is given here.
Assays:
[1] = molecular target: T1, 5-hydroxytryptamine receptor 1A (Homo sapiens) (UniProt P08908); test: Displacement of [3H][…] from human recombinant 5-HT1A receptor expressed in cells at 10 uM measured after 60 to 90 mins by radioligand completion assay relative to control; assay type: cell-based; conditions: time 60-90 min
T1 sequence (whole entry): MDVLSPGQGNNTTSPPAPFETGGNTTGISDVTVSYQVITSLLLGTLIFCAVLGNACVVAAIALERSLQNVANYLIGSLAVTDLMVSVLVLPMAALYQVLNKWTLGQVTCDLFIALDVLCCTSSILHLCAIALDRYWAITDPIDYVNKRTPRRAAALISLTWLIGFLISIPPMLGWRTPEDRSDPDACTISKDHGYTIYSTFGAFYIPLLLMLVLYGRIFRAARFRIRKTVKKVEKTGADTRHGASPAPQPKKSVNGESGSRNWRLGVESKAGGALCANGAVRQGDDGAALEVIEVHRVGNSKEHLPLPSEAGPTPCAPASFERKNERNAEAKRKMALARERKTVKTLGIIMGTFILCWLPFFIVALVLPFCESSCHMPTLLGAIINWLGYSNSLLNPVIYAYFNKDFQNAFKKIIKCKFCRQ

[2] = molecular target: T2, 5-hydroxytryptamine receptor 3A (Homo sapiens) (UniProt P46098); test: Displacement of [3H]BRL43694 from human recombinant 5-HT3 receptor expressed in CHO cells at 100 nM measured after 120 mins by radioligand completion assay relative to control; assay type: cell-based
T2 sequence (whole entry): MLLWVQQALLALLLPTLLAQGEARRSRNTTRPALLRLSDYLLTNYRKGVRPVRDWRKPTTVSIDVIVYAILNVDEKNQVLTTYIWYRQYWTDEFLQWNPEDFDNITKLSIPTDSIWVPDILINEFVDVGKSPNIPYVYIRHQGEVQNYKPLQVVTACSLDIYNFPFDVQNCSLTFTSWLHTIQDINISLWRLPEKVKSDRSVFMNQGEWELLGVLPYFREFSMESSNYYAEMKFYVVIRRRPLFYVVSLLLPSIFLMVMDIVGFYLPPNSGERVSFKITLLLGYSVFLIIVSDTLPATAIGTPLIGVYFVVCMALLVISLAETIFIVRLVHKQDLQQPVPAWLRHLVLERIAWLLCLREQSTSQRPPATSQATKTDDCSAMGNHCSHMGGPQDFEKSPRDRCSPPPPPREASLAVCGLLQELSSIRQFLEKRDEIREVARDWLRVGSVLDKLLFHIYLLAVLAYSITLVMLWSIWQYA

[3] = molecular target: T3, 5-hydroxytryptamine receptor 2B (Homo sapiens, UniProt P41595); test: biochemical
Rattus norvegicus [4] = assay type: functional; conditions: Sprague-Dawley, route ip, time 15 min
Rattus norvegicus [5] = assay type: functional; conditions: Sprague-Dawley, route iv
[6] = molecular target: T2, 5-hydroxytryptamine receptor 3A (Homo sapiens); test: Displacement of [3H]BRL43694 from human recombinant 5-HT3 receptor expressed in CHO cells at 10 uM measured after 120 mins by radioligand completion assay relative to control; assay type: cell-based
Rattus norvegicus [7] = assay type: functional; conditions: Sprague-Dawley, route iv; remark: listed apart in the source
[8] = molecular target: T4, 5-hydroxytryptamine receptor 2A (Homo sapiens, UniProt P28223); test: Displacement of [3H]LSD from human recombinant 5-HT2A receptor expressed in HEK cells by radioligand completion assay relative to control; assay type: cell-based
[9] = molecular target: T5, 5-hydroxytryptamine receptor 2C (Homo sapiens) (UniProt P28335); test: Displacement of [125I](+/-)DOI from human recombinant 5-HT2C receptor expressed in CHO cells at 10 uM measured after 60 mins by radioligand completion assay relative to control; assay type: cell-based
T5 sequence (whole entry): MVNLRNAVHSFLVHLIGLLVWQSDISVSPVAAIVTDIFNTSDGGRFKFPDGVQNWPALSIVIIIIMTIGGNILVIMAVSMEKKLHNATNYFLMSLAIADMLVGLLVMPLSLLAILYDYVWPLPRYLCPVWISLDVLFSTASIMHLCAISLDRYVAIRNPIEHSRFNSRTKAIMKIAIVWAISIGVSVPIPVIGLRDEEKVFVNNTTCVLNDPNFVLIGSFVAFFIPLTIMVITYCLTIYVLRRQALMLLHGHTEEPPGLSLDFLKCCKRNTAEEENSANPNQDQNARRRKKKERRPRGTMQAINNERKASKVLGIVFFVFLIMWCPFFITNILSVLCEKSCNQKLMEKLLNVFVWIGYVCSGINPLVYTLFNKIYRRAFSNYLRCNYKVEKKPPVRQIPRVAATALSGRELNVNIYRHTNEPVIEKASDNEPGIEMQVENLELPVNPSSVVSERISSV

[10] = molecular target: T6, 5-hydroxytryptamine receptor 1A (Homo sapiens, UniProt P08908); test: Displacement of [3H][…] from human recombinant 5-HT1A receptor expressed in HEK cells measured after 60 to 90 mins by radioligand completion assay relative to control; assay type: cell-based
T6 sequence (P08908 whole entry): T1 sequence (whole entry)

[11] = molecular target: T1, 5-hydroxytryptamine receptor 1A (Homo sapiens); test: Displacement of [3H][…] from human recombinant 5-HT1A receptor expressed in cells at 100 nM measured after 60 to 90 mins by radioligand completion assay relative to control; assay type: cell-based; conditions: time 60-90 min
[12] = AUCinfinity in Sprague-Dawley rat at […], iv; assay type: ADME, organism-based; conditions: in vivo
[13] = molecular target: T4, 5-hydroxytryptamine receptor 2A; test: Displacement of [125I](+/-)DOI from human recombinant 5-HT2A receptor expressed in HEK293 cells at 100 nM measured after 60 to 90 mins by radioligand completion assay relative to control; assay type: cell-based; conditions: time 60-90 min
[14] = molecular target: 5-hydroxytryptamine receptor 1B (Rattus norvegicus) (UniProt P28564); test: Displacement of [125I]CYP from rat cerebral cortex 5-HT1B receptor at 10 uM measured after 120 mins by radioligand completion assay relative to control; assay type: tissue-based
[15] = molecular target: T7, 5-hydroxytryptamine receptor 2C (Homo sapiens, UniProt P28335); test: biochemical
T7 sequence (P28335 whole entry): T5 sequence (whole entry)

[16] = molecular target: T6, 5-hydroxytryptamine receptor 1A; test: Displacement of [3H][…] from human recombinant 5-HT1A receptor expressed in CHO cells measured after 60 to 90 mins by radioligand completion assay relative to control; assay type: cell-based
[17] = molecular target: T3, 5-hydroxytryptamine receptor 2B; test: Displacement of [3H]LSD from human recombinant 5-HT2B receptor expressed in CHO cells by radioligand completion assay relative to control; assay type: cell-based
[18] = Clearence in Sprague-Dawley rat at 5 mg/kg, iv; assay type: ADME, organism-based; conditions: in vivo
[19] = Apparent volume of distributed in Sprague-Dawley rat at 5 mg/kg, iv; assay type: ADME, organism-based; conditions: in vivo, read-out: Vz
[20] = molecular target: T3, 5-hydroxytryptamine receptor 2B; test: Displacement of [125I](+/-)DOI from human recombinant 5-HT2B receptor expressed in CHO cells at 10 uM measured after 60 mins by radioligand completion assay relative to control; assay type: cell-based
[21] = molecular target: T5, 5-hydroxytryptamine receptor 2C (Homo sapiens); test: Displacement of [125I](+/-)DOI from human recombinant 5-HT2C receptor expressed in CHO cells at 100 nM measured after 60 mins by radioligand completion assay relative to control; assay type: cell-based
[22] = AUCinfinity in Sprague-Dawley rat at 5 mg/kg, iv; assay type: ADME, organism-based; design: time infinity, dose 5 mg/kg, route iv; conditions: in vivo
[23] = molecular target: T3, 5-hydroxytryptamine receptor 2B; test: Displacement of [125I](+/-)DOI from human recombinant 5-HT2B receptor expressed in CHO cells at 100 nM measured after 60 mins by radioligand completion assay relative to control; assay type: cell-based
[24] = molecular target: T4, 5-hydroxytryptamine receptor 2A; test: Displacement of [125I](+/-)DOI from human recombinant 5-HT2A receptor expressed in HEK293 cells at 10 uM measured after 60 to 90 mins by radioligand completion assay relative to control; assay type: cell-based; conditions: time 60-90 min
[25] = molecular target: 5-hydroxytryptamine receptor 7 (Homo sapiens, UniProt P34969); test: biochemical
Rattus norvegicus [26] = assay type: functional, organism-based; conditions: Sprague-Dawley, dose 1.0 mg/kg, route ip, time 15.0 min
[27] = molecular target: T6, 5-hydroxytryptamine receptor 1A; test: Displacement of [3H]5-CT from human recombinant 5-HT1A receptor expressed in CHO cells measured after 60 to 90 mins by radioligand completion assay relative to control; assay type: cell-based

T3 sequence (P41595 whole entry): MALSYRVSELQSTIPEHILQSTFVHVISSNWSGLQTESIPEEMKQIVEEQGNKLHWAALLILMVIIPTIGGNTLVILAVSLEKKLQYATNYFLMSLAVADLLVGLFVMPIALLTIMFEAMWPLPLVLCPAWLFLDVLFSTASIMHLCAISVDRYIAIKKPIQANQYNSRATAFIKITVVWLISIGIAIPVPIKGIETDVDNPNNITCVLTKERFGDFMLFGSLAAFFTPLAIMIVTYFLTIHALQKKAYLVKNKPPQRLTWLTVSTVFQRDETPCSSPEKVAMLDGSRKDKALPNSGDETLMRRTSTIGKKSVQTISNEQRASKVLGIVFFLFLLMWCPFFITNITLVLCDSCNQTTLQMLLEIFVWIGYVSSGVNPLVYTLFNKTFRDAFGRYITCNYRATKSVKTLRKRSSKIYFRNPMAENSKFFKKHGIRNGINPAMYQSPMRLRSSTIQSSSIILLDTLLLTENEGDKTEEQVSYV
5-hydroxytryptamine receptor 1B (Rattus norvegicus), sequence (P28564 whole entry): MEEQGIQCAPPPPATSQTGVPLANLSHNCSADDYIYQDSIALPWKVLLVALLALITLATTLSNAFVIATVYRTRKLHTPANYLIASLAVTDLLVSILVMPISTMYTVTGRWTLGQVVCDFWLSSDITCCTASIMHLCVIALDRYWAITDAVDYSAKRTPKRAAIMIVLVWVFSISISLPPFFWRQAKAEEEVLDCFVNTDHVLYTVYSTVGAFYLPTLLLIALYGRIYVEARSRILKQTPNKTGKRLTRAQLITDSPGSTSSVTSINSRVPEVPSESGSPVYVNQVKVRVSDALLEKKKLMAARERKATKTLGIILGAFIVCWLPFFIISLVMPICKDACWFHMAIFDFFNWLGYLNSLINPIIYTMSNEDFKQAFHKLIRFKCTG
T4 sequence (P28223 whole entry): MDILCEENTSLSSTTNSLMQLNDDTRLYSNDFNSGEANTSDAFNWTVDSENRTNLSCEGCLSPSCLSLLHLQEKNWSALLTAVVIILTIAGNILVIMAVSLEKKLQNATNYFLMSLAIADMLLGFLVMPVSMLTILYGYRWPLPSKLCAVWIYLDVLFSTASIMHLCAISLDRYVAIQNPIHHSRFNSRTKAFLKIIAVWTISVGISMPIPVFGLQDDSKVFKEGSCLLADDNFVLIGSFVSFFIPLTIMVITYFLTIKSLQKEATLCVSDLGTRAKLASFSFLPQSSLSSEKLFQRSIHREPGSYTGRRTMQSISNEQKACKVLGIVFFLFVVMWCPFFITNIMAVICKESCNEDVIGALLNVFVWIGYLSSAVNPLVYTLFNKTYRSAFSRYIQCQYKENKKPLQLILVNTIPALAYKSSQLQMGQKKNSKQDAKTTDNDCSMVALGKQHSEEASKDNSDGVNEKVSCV
5-hydroxytryptamine receptor 7, sequence (P34969 whole entry): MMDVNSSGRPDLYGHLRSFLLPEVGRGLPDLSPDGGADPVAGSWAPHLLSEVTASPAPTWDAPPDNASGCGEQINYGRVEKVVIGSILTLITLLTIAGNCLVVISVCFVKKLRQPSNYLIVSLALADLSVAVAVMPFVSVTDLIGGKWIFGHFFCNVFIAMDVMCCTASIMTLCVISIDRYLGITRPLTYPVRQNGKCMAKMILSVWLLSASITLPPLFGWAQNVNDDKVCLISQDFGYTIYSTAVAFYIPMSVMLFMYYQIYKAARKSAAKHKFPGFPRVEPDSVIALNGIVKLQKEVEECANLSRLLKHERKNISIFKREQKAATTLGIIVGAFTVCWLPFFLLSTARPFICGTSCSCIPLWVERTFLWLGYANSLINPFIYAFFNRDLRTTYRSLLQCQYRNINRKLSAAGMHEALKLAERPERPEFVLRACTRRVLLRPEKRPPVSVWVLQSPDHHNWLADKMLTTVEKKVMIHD

Compound: CC[C@H]1CN2CCc3c([nH]c4cccc(OC)c34)[C@@H]2C[C@@H]1/C(=C\OC)C(=O)OC
- Activity ([1]; filed as agonist): 98.7%
- Activity [2]: 11.3%
- Ki [3]: 108 nM
- ED50 (Rattus norvegicus [4]): 9.1 mg/kg
- ED50 (Rattus norvegicus [5]): 5.92 mg/kg
- Activity [6]: 1.5%
- ED50 (Rattus norvegicus [7]): 11.6 mg/kg
- Ki [8]: 1320 nM
- Activity ([9]; filed as agonist): 77.9%
- Ki [10]: 38.5 nM
- Activity ([11]; filed as agonist): 58.9%
- AUC(0-inf) [12]: 495 ng·h/mL
- Activity [13]: 2.8%
- Activity [14]: 30.4%
- Ki [15]: 5430 nM
- Ki [16]: 95.5 nM
- Ki [17]: 23 nM

Compound: CC[C@@H]1CN2CCc3c([nH]c4cccc(OC)c34)[C@@H]2C[C@@H]1/C(=C\OC)C(=O)OC
- Activity ([1]; filed as agonist): 76.7%
- Activity [2]: -9.1%
- CL [18]: 21.7 mL/min/kg
- Vd [19]: 8 L/kg
- Activity ([20]; filed as agonist): 90.7%
- Ki [3]: 1260 nM
- ED50 (Rattus norvegicus [4]): 26.8 mg/kg
- Activity [6]: -12.7%
- Activity [21]: -8.2%
- AUC [22]: 849.8 ng·h/mL
- Ki [8]: 5010 nM
- Activity [9]: 14.7%
- Activity [11]: 9.7%
- Activity [13]: -0.9%
- Activity [23]: 23%
- Activity [14]: 8.2%
- Ki [15]: > 10000 nM
- Activity ([24]; filed as agonist): 49.9%
- Ki [16]: 5880 nM

Compound: CC[C@@H]1CN2CC[C@@]3(O)C(=Nc4cccc(OC)c43)[C@@H]2C[C@@H]1/C(=C\OC)C(=O)OC
- Activity [1]: 1.2%
- Activity [2]: 8.2%
- Activity [20]: 12.4%
- Activity [6]: 19.5%
- Activity [21]: -18.3%
- Activity [9]: -13.9%
- Activity [11]: 3.1%
- Activity [13]: -0.2%
- Activity [23]: -1.4%
- Activity [14]: -0.8%
- Activity [24]: 3.9%

Compound: COC(=O)C1=COC[C@H]2CN3CCc4c([nH]c5ccccc45)[C@@H]3C[C@H]12
- Activity ([1]; filed as agonist): 95.2%
- Activity [2]: -2.5%
- Activity ([20]; filed as agonist): 89.3%
- Activity [6]: 1.8%
- Activity [21]: -12.5%
- Activity [9]: -5.3%
- Activity [11]: 33.2%
- Activity [13]: 5.1%
- Activity [23]: 6.2%
- Activity [24]: 36.5%

Compound: C=C[C@H]1CN2CCc3c([nH]c4cccc(OC)c34)[C@@H]2C[C@@H]1/C(=C\OC)C(=O)OC
- Ki [3]: 83.1 nM
- ED50 (Rattus norvegicus [5]): 5.45 mg/kg
- Ki [8]: 815 nM
- Ki [10]: 32 nM
- Ki [25]: 870 nM
- Ki [15]: 1770 nM
- Ki [16]: 71.8 nM
- Ki [17]: 20 nM

Compound: CC[C@@H]1CN2CCc3c([nH]c4cccc(OC)c34)[C@H]2C[C@@H]1/C(=C\OC)C(=O)OC
- Activity [1]: 33.3%
- Activity [2]: 11.1%
- Activity ([20]; filed as agonist): 47.1%
- Activity [6]: 0.7%
- Activity [21]: 0.4%
- Activity [9]: 14.3%
- Activity [11]: -4.8%
- Activity [13]: 1.5%
- Activity [23]: -3.4%
- Activity [14]: 16.8%
- Activity ([24]; filed as agonist): 68.1%

Compound: C=C[C@H]1CN2CCc3c([nH]c4cccc(O)c34)[C@@H]2C[C@@H]1/C(=C\OC)C(=O)OC
- Ki [3]: 336 nM
- Ki [16]: 97.7 nM

Compound: CC[C@H]1CN2CCc3c([nH]c4cccc(O)c34)[C@@H]2C[C@@H]1/C(=C\OC)C(=O)OC
- Ki [3]: 508 nM
- Ki [16]: 294 nM

Compound: O=C1c2ccccc2S(=O)(=O)N1CCCCN1CCN(c2ncccn2)CC1 [IPSAPIRONE]
- Activity (Rattus norvegicus [26]): inactive
- ED50 (Rattus norvegicus [4]): 0.431 mg/kg
- ED50 (Rattus norvegicus [5]): 3.41 mg/kg
- ED50 (Rattus norvegicus [7]): 7.68 mg/kg
- Ki [27]: 49.7 nM

— ChEMBL document CHEMBL5053503 (J Med Chem, 2021)
